Test [1] concerns the target T1, Cbl-b (Homo sapiens, UniProt Q13191).
T1 construct: biotin (biotinylated)
Description: Cbl-b probe displacement HTRF binding assay. As to conditions: 0.4 nM biotinylated Cbl-b, 150 nM BODIPY probe. The essentials: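 Biotinylated Cbl-b was preincubated with compound for 60 min at room temperature in HEPES/NaCl/Triton/TCEP/BSA buffer. BODIPY probe was added for 15 min, followed by streptavidin-terbium, and the HTRF signal was read. Displacement was normalised to DMSO and no-protein controls, and affinity was obtained from a four-parameter dose-response fit.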

Test [2] concerns Jurkat cells. The experiment in a line: IL-2 secretion assay in CD3/CD28-activated Jurkat cells (AlphaLISA). Type of test: cell-based. As to conditions: Homo sapiens, CD3/CD28 T Cell Activator, 24 h, IL-2 AlphaLISA. The essentials: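 Jurkat cells (50,000/well) were preincubated 1 h at 37° C with compound in a 16-point 1:2 series spanning 10 μM to 300 pM final. Cells were then activated with CD3/CD28 T cell activator, and secreted IL-2 was read by AlphaLISA. EC50 came from 4-parameter logistic fits.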

Where only a bound is given, the exact number is not on record here.

T1 sequence (Q13191 whole entry, species assumed): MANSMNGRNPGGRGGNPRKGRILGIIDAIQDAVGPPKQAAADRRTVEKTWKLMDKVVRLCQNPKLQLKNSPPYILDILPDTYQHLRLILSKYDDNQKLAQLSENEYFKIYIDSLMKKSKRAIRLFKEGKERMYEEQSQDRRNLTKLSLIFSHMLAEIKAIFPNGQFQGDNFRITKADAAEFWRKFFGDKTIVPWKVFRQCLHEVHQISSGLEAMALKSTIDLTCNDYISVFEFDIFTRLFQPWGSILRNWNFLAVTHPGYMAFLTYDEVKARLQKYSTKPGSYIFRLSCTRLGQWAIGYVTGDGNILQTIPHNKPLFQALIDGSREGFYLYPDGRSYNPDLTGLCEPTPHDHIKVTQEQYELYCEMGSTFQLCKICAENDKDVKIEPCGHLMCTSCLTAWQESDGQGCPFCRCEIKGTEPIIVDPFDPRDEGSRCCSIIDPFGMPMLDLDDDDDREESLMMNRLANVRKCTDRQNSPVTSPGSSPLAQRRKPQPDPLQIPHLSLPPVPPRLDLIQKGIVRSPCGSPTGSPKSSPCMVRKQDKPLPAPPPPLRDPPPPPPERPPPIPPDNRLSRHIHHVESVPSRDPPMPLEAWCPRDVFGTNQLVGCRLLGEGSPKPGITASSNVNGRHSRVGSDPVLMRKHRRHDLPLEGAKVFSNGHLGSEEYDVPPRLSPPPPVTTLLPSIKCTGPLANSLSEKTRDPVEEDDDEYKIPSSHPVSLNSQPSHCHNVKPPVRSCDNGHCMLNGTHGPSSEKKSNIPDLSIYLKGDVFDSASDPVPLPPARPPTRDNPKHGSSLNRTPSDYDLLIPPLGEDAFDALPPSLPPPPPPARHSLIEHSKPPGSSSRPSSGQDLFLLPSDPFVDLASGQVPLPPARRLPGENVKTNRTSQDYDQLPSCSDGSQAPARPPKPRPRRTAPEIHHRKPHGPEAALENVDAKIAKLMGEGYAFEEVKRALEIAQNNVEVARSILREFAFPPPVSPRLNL

On to `Cn1cnnc1C1(c2cccc(-n3cc(C4CC4)c4cc(CN[C@H]5COC[C@@H]5O)[nH]c4c3=O)c2)CC(F)(F)C1` [Example 92], for which the 50% inhibitory concentration (IC50) – broadly, the point on the concentration scale where inhibition reaches its midpoint – in test [1] fell in the range of 100 to 1000 nM. In addition, in test [2], the EC50 (usually the concentration that produces a half-maximal response) was over 5000 nM.
On to `Cn1cnnc1C1(c2cccc(-n3cc(C4CC4)c4cc(CN5CC[C@@H](F)[C@H](O)C5)[nH]c4c3=O)c2)CC(F)(F)C1` [Example 93, 4-cyclopropyl-6-{3-[3,3-difluoro-1-(4-methyl-4H-1,2,4-triazol-3-yl)cyclobutyl]phenyl}-2-{[(3R,4R)-4-fluoro-3-hydroxypiperidin-1-yl]methyl}-1H,6H,7H-pyrrolo[2,3-c]pyridin-7-one], for which, in test [1], the IC50 was in the range of 100 to 1000 nM. Further, the EC50 in test [2] lay within 1000 to 5000 nM.
On the same counts, the results for `C[C@@H]1CN(Cc2cc3c(C4CC4)cn(-c4cccc(C5(c6nncn6C)CC(F)(F)C5)c4)c(=O)c3[nH]2)CCO1` [Example 94, 4-cyclopropyl-6-[3-[3,3-difluoro-1-(4-methyl-1,2,4-triazol-3-yl)cyclobutyl]phenyl]-2-[[(2R)-2-methylmorpholin-4-yl]methyl]-1H-pyrrolo[2,3-c]pyridin-7-one] are under 100 nM and under 100 nM.
The compound `C[C@H]1CCCN(Cc2cc3c(C4CC4)cn(-c4cccc([C@]5(c6nncn6C)C[C@H](OC(F)F)C5)c4)c(=O)c3[nH]2)C1` [Example 95, trans-4-cyclopropyl-6-[3-[3-(difluoromethoxy)-1-(4-methyl-1,2,4-triazol-3-yl)cyclobutyl]phenyl]-2-[[(3S)-3-methylpiperidin-1-yl]methyl]-1H-pyrrolo[2,3-c]pyridin-7-one] yielded a half-inhibitory concentration (IC50) in test [1] of under 100 nM. The EC50 in test [2] was under 100 nM.
Compound `C[C@H]1CCCN(Cc2cc3c(C4CC4)cn(-c4cccc([C@]5(c6nncn6C)C[C@@H](OC(F)F)C5)c4)c(=O)c3[nH]2)C1` [Example 96, cis-4-cyclopropyl-6-[3-[3-(difluoromethoxy)-1-(4-methyl-1,2,4-triazol-3-yl)cyclobutyl]phenyl]-2-[[(3S)-3-methylpiperidin-1-yl]methyl]-1H-pyrrolo[2,3-c]pyridin-7-one] displayed an IC50 in test [1] of under 100 nM. Moreover, in test [2], the EC50 is under 100 nM.
`C[C@H]1CCCN(Cc2cc3c(C4CC4)cn(-c4cccc([C@]5(c6nccn6C)C[C@H](OC(F)F)C5)c4)c(=O)c3[nH]2)C1` [Example 97, 4-cyclopropyl-6-[3-[3-(difluoromethoxy)-1-(1-methylimidazol-2-yl)cyclobutyl]phenyl]-2-[[(3S)-3-methylpiperidin-1-yl]methyl]-1H-pyrrolo[2,3-c]pyridin-7-one]: the IC50 in test [1] was under 100 nM. In addition, the EC50 in test [2] lay within 100 to 1000 nM.
The corresponding values for `CCO[C@H]1C[C@](c2cccc(-n3cc(C4CC4)c4cc(CN5CCC[C@H](C)C5)[nH]c4c3=O)c2)(c2nncn2C)C1` [Example 98, trans-4-cyclopropyl-6-[3-[3-ethoxy-1-(4-methyl-1,2,4-triazol-3-yl)cyclobutyl]phenyl]-2-[[(3S)-3-methylpiperidin-1-yl]methyl]-1H-pyrrolo[2,3-c]pyridin-7-one] are under 100 nM and under 100 nM.
On the same counts, the results for `CO[C@H]1C[C@](c2cccc(-n3cc(C4CC4)c4cc(CN5CCC6(CC6)C5)[nH]c4c3=O)c2)(c2nncn2C)C1` [Example 100] are under 100 nM and 100 to 1000 nM.
`CO[C@H]1C[C@](c2cccc(-n3cc(C4CC4)c4cc(CN5CCC[C@H](C)C5)[nH]c4c3=O)c2)(c2nncn2C)C1` [Example 101, trans-4-cyclopropyl-6-[3-[3-methoxy-1-(4-methyl-1,2,4-triazol-3-yl)cyclobutyl]phenyl]-2-[[(3S)-3-methylpiperidin-1-yl]methyl]-1H-pyrrolo[2,3-c]pyridin-7-one] yielded an IC50 in test [1] of under 100 nM. Further, the EC50 in test [2] is under 100 nM.
In turn, `CO[C@H]1C[C@@](c2cccc(-n3cc(C4CC4)c4cc(CN5CCC[C@H](C)C5)[nH]c4c3=O)c2)(c2nncn2C)C1` [Example 102, cis-4-cyclopropyl-6-[3-[3-methoxy-1-(4-methyl-1,2,4-triazol-3-yl)cyclobutyl]phenyl]-2-[[(3S)-3-methylpiperidin-1-yl]methyl]-1H-pyrrolo[2,3-c]pyridin-7-one] came in with a 50% inhibitory concentration (IC50) in test [1] of under 100 nM. This compound came in with a concentration for a half-maximal effect (EC50) in test [2] of under 100 nM.
Regarding `COC1CC(c2cccc(-n3cc(C4CC4)c4cc(CN5CCO[C@H](C)C5)[nH]c4c3=O)c2)(c2nncn2C)C1` (stereo partly drawn) [Example 103, 4-cyclopropyl-6-[3-[3-methoxy-1-(4-methyl-1,2,4-triazol-3-yl)cyclobutyl]phenyl]-2-[[(2R)-2-methylmorpholin-4-yl]methyl]-1H-pyrrolo[2,3-c]pyridin-7-one], in test [1], the IC50 is under 100 nM. The 50% effective concentration (EC50) in test [2] was 100 to 1000 nM.
In test [1], `C[C@H]1CCCN(Cc2cc3c(C(F)(F)F)cn(-c4cccc(C5(c6nncn6C)CC6(CC6)C5)c4)c(=O)c3[nH]2)C1` [Example 105] registered an IC50 of under 100 nM. Moreover, the concentration giving a half-maximal response (EC50) in test [2] was under 100 nM.
In test [1], `C[C@H]1CCCN(Cc2nc3c(C4CC4)cn(-c4cccc([C@]5(c6nncn6C)C[C@H](C)C5)c4)c(=O)c3[nH]2)C1` [Example 109, 7-cyclopropyl-5-[3-[3-methyl-1-(4-methyl-1,2,4-triazol-3-yl)cyclobutyl]phenyl]-2-[[(3S)-3-methylpiperidin-1-yl]methyl]-3H-imidazo[4,5-c]pyridin-4-one] returned an IC50 of under 100 nM. Also, the EC50 in test [2] was under 100 nM.
In turn, `C[C@@H]1CN(Cc2nc3c(C4CC4)cn(-c4cccc([C@]5(c6nncn6C)C[C@H](C)C5)c4)c(=O)c3[nH]2)CCO1` [Example 110, 7-cyclopropyl-5-[3-[3-methyl-1-(4-methyl-1,2,4-triazol-3-yl)cyclobutyl]phenyl]-2-[[(2R)-2-methylmorpholin-4-yl]methyl]-3H-imidazo[4,5-c]pyridin-4-one] displayed a half-maximal inhibitory concentration (IC50) in test [1] of under 100 nM. This compound also registered an EC50 in test [2] of 100 to 1000 nM.
`C[C@H]1CCCN(Cc2nc3c(C4CC4)cn(-c4cccc(C5(c6nncn6C)CC6(CC6)C5)c4)c(=O)c3[nH]2)C1` [Example 111, 7-cyclopropyl-2-[[(3S)-3-methylpiperidin-1-yl]methyl]-5-[3-[5-(4-methyl-1,2,4-triazol-3-yl)spiro[2.3]hexan-5-yl]phenyl]-3H-imidazo[4,5-c]pyridin-4-one] registered an IC50 in test [1] of under 100 nM. For the same compound, the EC50 in test [2] is under 100 nM.
As for `C[C@H]1CCCN(Cc2nc3c(C4CC4)cn(-c4cccc(C5(c6nncn6C)CC(F)(F)C5)c4)c(=O)c3[nH]2)C1` [Example 112, 7-cyclopropyl-5-[3-[3,3-difluoro-1-(4-methyl-1,2,4-triazol-3-yl)cyclobutyl]phenyl]-2-[[(3S)-3-methylpiperidin-1-yl]methyl]-3H-imidazo[4,5-c]pyridin-4-one], the IC50 in test [1] is under 100 nM. For the same compound, the EC50 in test [2] is under 100 nM.
Compound `C[C@H]1CCCN(Cc2nc3c(C(F)(F)F)cn(-c4cccc(C5(c6nncn6C)CC(F)(F)C5)c4)c(=O)c3[nH]2)C1` [Example 113, 5-[3-[3,3-difluoro-1-(4-methyl-1,2,4-triazol-3-yl)cyclobutyl]phenyl]-2-[[(3S)-3-methylpiperidin-1-yl]methyl]-7-(trifluoromethyl)-3H-imidazo[4,5-c]pyridin-4-one] gave a concentration for half-maximal inhibition (IC50) in test [1] of under 100 nM. The compound also displayed an EC50 in test [2] of under 100 nM.
